Measured values reported in patent US20230053540A1, “TREATMENT OF LIVER INJURY” (Massachusetts Institute of Technology, priority 2019, published 2023).

Test system: hepatocytes
Test: Seq-Well scRNA-Seq of hepatocytes after APAP overdose (signature scores, DEG vs untreated)
Type: in vivo, mouse
Settings: A6 vs UT

SMILES: CC(=O)Nc1ccc(O)cc1 [APAP, acetaminophen]
- Slc25a10 avg_logFC: −0.2828
- Slc25a10 pct.1: 0.351
- Slc25a47 avg_logFC: 0.4289
- Slc25a51 A6logFC: 0.264
- Slc25a51 avg_logFC: 0.264
- Slc25a51 pct.1: 0.308
- Slc26a1 A6logFC: −0.2817
- Slc26a1 avg_logFC: −0.2817
- Slc26a1 pct.1: 0.329
- Slc30a1 A6logFC: 0.2506
- Slc30a1 avg_logFC: 0.2506
- Slc30a1 pct.1: 0.346
- Slc35d1 A6logFC: 0.3094
- Slc35d1 avg_logFC: 0.3094
- Slc35d1 pct.1: 0.489
- Slc38a3 avg_logFC: −0.4098
- Slc38a3 pct.1: 0.663
- Slc39a14 avg_logFC: 1.013
- Slc40a1 avg_logFC: 0.467
- Slc40a1 pct.1: 0.456
- Slirp A6logFC: −0.3085
- Smoc1 A6logFC: 0.2616
- Smoc1 avg_logFC: 0.2616
- Smoc1 pct.1: 0.368
- Snx10 A6logFC: 0.2856
- Snx10 avg_logFC: 0.2856
- Snx10 pct.1: 0.341
- Sod1 avg_logFC: −0.4393
- Son avg_logFC: 0.5429
- Son pct.1: 0.601
- Sord avg_logFC: −0.3836
- Sord pct.1: 0.754
- Spag9 A6logFC: 0.3188
- Spag9 avg_logFC: 0.3188
- Spag9 pct.1: 0.415
- Spcs1 A6logFC: −0.2629
- Spcs1 avg_logFC: −0.2629
- Spcs1 pct.1: 0.236
- Spp2 avg_logFC: −0.3821
- Spp2 pct.1: 0.334
- Spred1 avg_logFC: 0.3884
- Spred1 pct.1: 0.308
- Sptan1 A6logFC: 0.3127
- Sptan1 avg_logFC: 0.3127
- Sptan1 pct.1: 0.348
- Sptbn1 avg_logFC: 0.4227
- Sptbn1 pct.1: 0.439
- Sqstm1 avg_logFC: 0.7432
- Srd5a1 A6logFC: −0.2773
- Srd5a1 avg_logFC: −0.2773
- Srd5a1 pct.1: 0.308
- Srgn avg_logFC: 0.9341
- Srrm2 A6logFC: 0.3282
- Srrm2 avg_logFC: 0.3282
- Srrm2 pct.1: 0.456
- Srxn1 avg_logFC: 1.878
- Ssr4 avg_logFC: −0.5076
- Ssr4 pct.1: 0.413
- St3gal1 avg_logFC: 0.5287
- St3gal4 A6logFC: 0.275
- St3gal4 avg_logFC: 0.275
- St3gal4 pct.1: 0.368
- St3gal5 avg_logFC: 0.6076
- Stard10 avg_logFC: −0.3383
- Stard10 pct.1: 0.876
- Stat3 avg_logFC: 0.7154
- Stbd1 A6logFC: −0.2732
- Steap4 avg_logFC: 0.4372
- Steap4 pct.1: 0.37
- Stk40 avg_logFC: 0.5364
- Suco A6logFC: 0.251
- Suco avg_logFC: 0.251
- Suco pct.1: 0.26
- Sult1a1 avg_logFC: 0.319
- Sult1a1 pct.1: 0.685
- Supt6 A6logFC: 0.2913
- Supt6 avg_logFC: 0.2913
- Supt6 pct.1: 0.291
- Swi5 A6logFC: −0.2621
- Swi5 avg_logFC: −0.2621
- Swi5 pct.1: 0.341
- Syncrip A6logFC: 0.2748
- Syncrip avg_logFC: 0.2748
- Syncrip pct.1: 0.365
- Tab2 A6logFC: 0.3484
- Tab2 avg_logFC: 0.3484
- Tab2 pct.1: 0.425
- Tacc2 avg_logFC: 0.3293
- Tacc2 pct.1: 0.289
- Tars avg_logFC: 0.4921
- Tars pct.1: 0.666
- Tatdn2 avg_logFC: 0.3733
- Tatdn2 pct.1: 0.334
- Tbc1d15 avg_logFC: 0.4886
- Tbc1d15 pct.1: 0.461
- Tbca A6logFC: −0.2726
- Tbca avg_logFC: −0.2726
- Tbca pct.1: 0.284
- Tcerg1 avg_logFC: 0.3575
- Tcerg1 pct.1: 0.305
- Tfpi2 avg_logFC: −0.3663
- Tfpi2 pct.1: 0.155
- Timm13 avg_logFC: −0.433
- Timm13 pct.1: 0.418
- Tiparp avg_logFC: 0.5456
- Tjp2 avg_logFC: 0.4115
- Tjp2 pct.1: 0.332
- Tln1 A6logFC: 0.321
- Tln1 avg_logFC: 0.321
- Tln1 pct.1: 0.31
- Tm4sf4 avg_logFC: 0.5126
- Tm4sf4 pct.1: 0.484
- Tmed5 avg_logFC: 0.4016
- Tmed5 pct.1: 0.594
- Tmem14c avg_logFC: −0.3685
- Tmem14c pct.1: 0.332
- Tmem37 A6logFC: −0.2822
- Tmem86b A6logFC: −0.2582
- Tmem87b avg_logFC: 0.4344
- Tmem87b pct.1: 0.351
- Tmem147 A6logFC: 0.2838
- Tmem150a A6logFC: −0.2535
- Tmem160 A6logFC: −0.339
- Tmem205 avg_logFC: −0.7747
- Tmem242 A6logFC: −0.2725
- Tmem256 avg_logFC: −0.5185
- Tmem256 pct.1: 0.375
- Tmem258 A6logFC: −0.2769
- Tmprss6 A6logFC: −0.2802
- Tmprss6 avg_logFC: −0.2802
- Tmprss6 pct.1: 0.551
- Tmsb4x avg_logFC: 0.7806
- Tnfrsf1a avg_logFC: 0.5996
- Tnfrsf12a avg_logFC: 1.118
- Tnks2 A6logFC: 0.3176
- Tns1 avg_logFC: 0.4349
- Tns1 pct.1: 0.403
- Tpi1 A6logFC: −0.2616
- Tpi1 avg_logFC: −0.2616
- Tpi1 pct.1: 0.539
- Tpr A6logFC: 0.4409
- Tra2a avg_logFC: 0.7123
- Trf avg_logFC: −0.2619
- Trf pct.1: 0.988
- Trib1 avg_logFC: 0.3317
- Trib1 pct.1: 0.411
- Trip11 A6logFC: 0.3479
- Trip11 avg_logFC: 0.3479
- Trip11 pct.1: 0.341
- Trp53inp1 avg_logFC: 1.008
- Tsc22d1 A6logFC: −0.2997
- Tsc22d2 avg_logFC: 0.3911
- Tsc22d2 pct.1: 0.353
- Tsku avg_logFC: 0.3676
- Tsku pct.1: 0.327
- Tspan31 A6logFC: −0.2959
- Tspan31 avg_logFC: −0.2959
- Tspan31 pct.1: 0.415
- Tspo A6logFC: −0.3157
- Tsr1 avg_logFC: 0.3603
- Tsr1 pct.1: 0.341
- Ttc36 avg_logFC: −0.6606
- Ttr avg_logFC: −0.5306
- Tubb2a avg_logFC: 0.7494
- Tubb6 avg_logFC: 0.5767
- Tyrobp avg_logFC: 0.4666
- Ubb A6logFC: −0.275
- Ubc avg_logFC: −0.6618
- Ubr4 A6logFC: 0.3301
- Ubr4 avg_logFC: 0.3301
- Ubr4 pct.1: 0.411
- Ubr5 A6logFC: 0.3057
- Ubr5 avg_logFC: 0.3057
- Ubr5 pct.1: 0.399
- Ugdh avg_logFC: 0.6331
- Ugt2b5 avg_logFC: −0.6034
- Ugt2b36 avg_logFC: −0.5834
- Ugt3a2 A6logFC: −0.2586
- Ugt3a2 avg_logFC: −0.2586
- Ugt3a2 pct.1: 0.492
- Uhrf1bp1l avg_logFC: 0.4198
- Uhrf1bp1l pct.1: 0.399
- Uox avg_logFC: −0.5531
- Upp2 avg_logFC: −0.6903
- Uqcr10 avg_logFC: −0.4519
- Uqcr10 pct.1: 0.561
- Uqcr11 avg_logFC: −0.6031
- Uqcrb avg_logFC: −0.4084
- Uqcrb pct.1: 0.425
- Uqcrh avg_logFC: −0.4292
- Uqcrh pct.1: 0.589
- Urah avg_logFC: −0.7641
- Usp4 avg_logFC: 0.28
- Usp4 pct.1: 0.439
- Usp7 A6logFC: 0.2873
- Usp7 avg_logFC: 0.2873
- Usp7 pct.1: 0.363
- Usp9x avg_logFC: 0.3184
- Usp9x pct.1: 0.451
- Usp34 A6logFC: 0.2859
- Usp34 avg_logFC: 0.2859
- Usp34 pct.1: 0.37
